By solubility is commonly meant the concentration that dissolves in the medium under given conditions. Low values mean a poorly soluble substance, high ones a readily soluble substance.

Results on four substances are retold here after patent US9345755B2, “Composition and methods for treating melanoma” (University of Virginia Patent Foundation, priority 2012, dated 2016).

In series [1] the test system is high-risk ovarian cancer patients. The following applies: human, in vivo; cited from earlier work.
Series [2] is described as follows: Stability of peptide against alkaline hydrolysis at pH 12. It counts as physicochemical. The conditions noted are these: pH 12, NaOH. An excerpt:
It will be sterile-filtered.

“Also recorded” adds a separate entry of the source. Ends that are not written are not given here.

Description for physchem: Vaccines are prepared by solubilization of each peptide in aqueous solutions, then sterile filtration, mixing, and vialing at 600 mcg per vial.
It is then sterile-filtered. […] It is then sterile-filtered.
The solubilization regimen was difficult to establish for the 8 long peptides.
These 3 sterile solutions will be combined and will be brought up to a concentration of 600 mcg/ml of each peptide using sterile water, lactated ringer's solution or normal saline solution. The pH of the mixture will be about 8-8.50, for a concentration of 600 micrograms per ml of each peptide.

“VPLAHSSSAFTIMDQVPFSVSVSQLRALDG [Peptide 4]” gave a solubility in the series “physchem” of 20 mg/mL.
Regarding “NY-ESO-179-108: long peptide, residues 79-108 of cancer-testis antigen NY-ESO-1 (GARGPESRLLEFYLAMPFATPMEAELARRS; UniProt P78358 79-108, looked up, fragment)”, in series [1], the “CD4 T cell responses after vaccination” value is reported as “induces CD4 T cell responses”.
In “physchem”, “LLHLAVIGALLAVGATKVPRNQDWLGVSRQL [Peptide 6]” yielded a solubility of 10 mg/mL.
As to “SMHNALHIYMDGTMSQVQGSANDPIFLLHH [Peptide 3]”, in series [2], the “stability (hydrolysis/degradation) of peptide” value was “stable at this pH and is not hydrolyzed or degraded; also recorded: hydrolysis is not an issue and the peptide is intact”.
